We go through twelve molecules from patent US20170107257A1, “CYCLIC APELIN ANALOGS” (LANTHIOPEP B.V., priority 2014, published 2017).

Data set [1] in a line: Stability of apelin analogs in rat plasma. It counts as in vitro ADME. Here is the method: Stability of apelin analogs in rat plasma. […] Samples were quenched by acidifying to final concentration of 5% TFA. Samples were analyzed on HPLC. Peak heights were plotted as relative to the initial peak heights.
Data set [2] deals with T1, hAPJ (Homo sapiens, UniProt P35414).
T1 sequence (P35414 1-380): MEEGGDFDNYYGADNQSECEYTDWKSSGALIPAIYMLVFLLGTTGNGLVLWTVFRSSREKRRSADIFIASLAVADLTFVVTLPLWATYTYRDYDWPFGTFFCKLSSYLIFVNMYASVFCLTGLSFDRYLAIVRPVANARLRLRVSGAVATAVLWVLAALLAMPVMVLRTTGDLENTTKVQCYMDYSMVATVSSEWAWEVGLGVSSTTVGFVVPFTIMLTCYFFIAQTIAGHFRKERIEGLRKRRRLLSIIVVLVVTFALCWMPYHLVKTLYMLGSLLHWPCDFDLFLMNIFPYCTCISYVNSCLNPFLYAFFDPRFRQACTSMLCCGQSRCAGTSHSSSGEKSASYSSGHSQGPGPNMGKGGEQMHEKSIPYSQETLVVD
Put plainly: beta arrestin assay (DiscoverX). Format: cell-based. To be noted: for Ratio β-arrestin/cAMP: ratio of β-arrestin EC50 to cAMP EC50; for EC50: read-out: β-arrestin EC50.
Method: (§1) (Me)lan apelin variants were tested with cAMP and beta arrestin assays from the company DiscoverX.

Data set [3] addresses T1, hAPJ. Put plainly: cAMP assay (DiscoverX). It counts as cell-based. A general note: Cyclic AMP is a second messenger, typically raised through Gs and lowered through Gi signalling.
Method: as §1
Data set [4] deals with T1, hAPJ. Put plainly: hAPJ receptor internalization assay (APJ-GFP translocation, HEK293). It counts as cell-based. Further details: expressed in transfected cells; host or cells: HEK293, adenoviral transduction (Ad-GFP-hAPJ). To be noted: 500 nM max, read-out: Relative EC50 (nM), hAPJ internalisation.
Method: HEK293 cells are seeded 24 hours prior to experiment at 50% confluence in 2×F75 flasks. The next morning, cells are trypsinized, vortexed for 60 seconds and passed through a 40 micron mesh filter. Cells are resuspended at a density of 300,000 cells/ml in OptiMEM+2% FBS, and Ad-GFP-hAPJ virus is added at an MOI of 1 PFU/cell. Cells are vortexed and dispensed into 96 well clear bottom, black dishes at a concentration of 10,000 cells/well. Cells are maintained at room temperature for 30 minutes to allow cell attachment to the dish prior to Incubation overnight at 37° C. in a 5% CO2 incubator. Next morning, apelin analogs are added in a concentration response curve (500 nM max). APJ-GFP translocation is observed and documented on Olympus FV con-focal microscope.
The target in data set [5] is T1, hAPJ. The data set can be described thus: APJ competition binding assay ([125I]-Apelin 13, SPA, HEK293 membranes). To be noted: competition with 0.06 nM [Glp65,Nle75,Tyr77][125I]-Apelin 13; read-out: Relative IC50, hAPJ BINDING. Further details: expressed in transfected cells; host or cells: HEK293, adenoviral transduction (Ad-GFP-hAPJ).
Method: [Glp^65, Nle^75, Tyr^77][^125I]-Apelin 13 binding experiments are carried out in SPA 96-well format. Membranes used in this assay are prepared from HEK293 cells stably expressing either recombinant hAPJ or rAPJ. The incubation is initiated by the addition of a mixture of WGA PVT SPA beads (0.5 mg/well) and 0.08 μg of membranes to an assay buffer (25 mM HEPES, 10 mM MgCl2, 1 mM CaCl2, 0.1% BSA, pH7.4) containing 0.06 nM [Glp^65, Nle^75, Tyr^77][^125I]-Apelin 13 and increasing concentrations of the tested compound (10 point concentration response curves). Non-specific binding is determined in the presence of 100 nM apelin 17. Samples are incubated during eight hours at room temperature (22° C.). Then, 96-well plates are read in a Microbeta Trilux.
The target of data set [6] is T2, hAPJ (Homo sapiens, UniProt P35414).
T2 construct: host or cells: CHO-K1
Put plainly: hAPJ β-arrestin recruitment assay (PathHunter, CHO-K1). It counts as cell-based. To be noted: for EC50: 90 min incubation at 37° C., read-out: Relative EC50, Arrestin recruitment. (Activated receptors often draw arrestin, which recruitment assays turn into a signal.)
T2 sequence (P32121 whole entry partner, one chain of several): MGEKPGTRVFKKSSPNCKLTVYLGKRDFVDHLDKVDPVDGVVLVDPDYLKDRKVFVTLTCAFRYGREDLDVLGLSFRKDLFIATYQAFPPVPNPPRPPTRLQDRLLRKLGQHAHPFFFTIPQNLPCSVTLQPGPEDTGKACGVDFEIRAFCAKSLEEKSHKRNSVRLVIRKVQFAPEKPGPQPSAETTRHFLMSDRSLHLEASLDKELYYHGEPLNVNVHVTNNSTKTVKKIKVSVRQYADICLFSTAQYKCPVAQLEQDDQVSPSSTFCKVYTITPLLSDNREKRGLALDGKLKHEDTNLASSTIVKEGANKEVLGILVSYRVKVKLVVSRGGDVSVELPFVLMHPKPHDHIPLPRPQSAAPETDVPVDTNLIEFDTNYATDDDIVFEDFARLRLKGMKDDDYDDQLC
Method: Stimulation of hAPJ interaction with 6-arrestin is studied using the PathHunter™ system from DiscoveRx. CHO-K1 cell line was engineered to co-express the ProLink/Enzyme donor (PK)-tagged APJ and the enzyme activator (EA)-tagged 6-arrestin fusion proteins. Upon GPCR activation, enzyme fragment complementation occurs, to produce an active β-Gal enzyme. These cells are seeded at a density of 15000 cells/well. […] Following 90 min incubation at 37° C. with the compounds, cells are lysed and incubated with PathHunter reagent for 1 hour at room temperature. Samples are then read with an ultrasensitive luminescence protocol using an Envision instrument (Perkin Elmer).

Data set [7] has as its target T3, HEK293 cells expressing recombinant APJ receptors (Homo sapiens, UniProt P35414).
T3 construct: expressed in transfected cells; host or cells: HEK293
T3 sequence (P35414 1-380): T1 sequence (P35414 1-380)
The data set can be described thus: Forskolin-stimulated cAMP assay (HTRF). Format: cell-based. To be noted: 10 μM forskolin, 0.5 mM IBMX, 40 min; read-out: Relative EC50 (nM), cAMP.
Method: Cyclic AMP level in HEK293 cells expressing recombinant APJ receptors is assayed by an HTRF competitive immunoassay. Cells at a density of 4000 cells/well are resuspended in assay buffer (HBSS containing Ca^2+ and Mg^2+ supplemented with 0.1% BSA and 5 mM HEPES) and added to the assay plate. Incubation for 40 min at room temperature is started with the addition of increasing concentrations of the compounds containing 10 μM forskolin and 0.5 mM IBMX. Reaction is stopped by addition of lysis buffer including d2-labeled cAMP, followed by addition of cryptate-labeled anti-cAMP monoclonal antibody, according to the manufacturer instructions. Time-resolved fluorescence at 620 and 665 nm is measured in an Envision instrument after 2 hour incubation at room temperature in the dark. cAMP content in the samples is determined by interpolation in a cAMP standard curve.

In data set [8] the test system is human immunodeficiency virus. To be noted: cited from earlier work.

Where two headings read alike, the source gives them in different places. Numbered stars: 1 amine (or outer) side, 2 acyl side, 3 side chain; on linkers, the order of the positions; unused ones are H or OH. Bridge positions count the residues as written; N and C are the ends. Square brackets hold non-standard residues; d marks the D form. Ends that are not written are not given here. Peptide text beside a SMILES is read from it. ξ: configuration not given here. ξAbu(3ξ-yl) = CC(C(N[*:1])C(=O)[*:2])[*:3]; pGlu = O=C1CC[C@@H](C(=O)O)N1; X1 = CC=C(N[*:1])C(=O)[*:2]; ξC = NC(CS)C(=O)O Where only a bound is given, the exact number is not on record here.

For orientation: EC50 means the midpoint of the concentration-response curve. By IC50 is commonly meant the concentration that gives 50% inhibition.

In data set [1] (rat, plasma, pH 7.4), `CSCC[C@@H]1NC(=O)[C@@H]2CCCN2C(=O)CNC(=O)[C@H](CCCCN)NC(=O)[C@H](Cc2c[nH]cn2)NC(=O)C(NC(=O)[C@H](CC(C)C)NC(=O)[C@H](CCCNC(=N)N)NC(=O)[C@@H]2CCCN2C(=O)[C@H](CCCNC(=N)N)NC(=O)[C@@H]2CCC(=O)N2)CSCC(C(=O)N2CCC[C@H]2C(=O)N[C@@H](Cc2ccccc2)C(=O)O)NC1=O` (single isomer, unassigned) [pEApeM27S I, pERPRLLanHKGPMLanPF] came in with a half-life at 0.1 mg/ml of more than 24 h. Besides, the “Ratio β-arrestin/cAMP” value at hAPJ [2] is listed as 50.

Turning to `CSCC[C@@H]1NC(=O)[C@@H]2CCCN2C(=O)CNC(=O)C(NC(=O)[C@H](Cc2c[nH]cn2)NC(=O)[C@H](C)NC(=O)[C@H](CC(C)C)NC(=O)[C@H](CCCNC(=N)N)NC(=O)[C@@H]2CCCN2C(=O)[C@H](CCCNC(=N)N)NC(=O)[C@@H](N)CCC(N)=O)CSCC(C(=O)N[C@@H](Cc2ccccc2)C(=O)O)NC1=O` (stereo partly shown) [ApeT8cS], on hAPJ [3], the “activity in Example 8” value was “significant activity”.

As to `CSCC[C@H](NC(=O)[C@@H]1CCCN1C(=O)CNC(=O)C1CSC(C)C(NC(=O)[C@H](CC(C)C)NC(=O)[C@H](CCCNC(=N)N)NC(=O)[C@@H]2CCCN2C(=O)[C@H](CCCNC(=N)N)NC(=O)[C@@H]2CCC(=O)N2)C(=O)N[C@@H](Cc2c[nH]cn2)C(=O)N[C@@H](CCCCN)C(=O)N1)C(=O)N1CCC[C@H]1C(=O)N[C@@H](Cc1ccccc1)C(N)=O` (stereo partly shown) [amidated pEApeM6, pERPRLmeLanHKmeLanGPMPF-NH2] ([pGlu]RPRL[ξAbu(3ξ-yl)]HK[ξC]GPMPF-NH2; thioether 6-9), on hAPJ [2], the “Ratio β-arrestin/cAMP” value was 0.75 and the 50% effective concentration (EC50) is 0.06 µM. This molecule also returned an EC50 at hAPJ [3] of 0.08 µM.

In the case of `CSCC[C@H](NC(=O)[C@@H]1CCCN1C(=O)CNC(=O)[C@H](CCCCN)NC(=O)C1CSC(C)C(NC(=O)[C@@H]2CCCN2C(=O)[C@H](CCCNC(=N)N)NC(=O)[C@@H]2CCC(=O)N2)C(=O)N[C@@H](CCCNC(=N)N)C(=O)N[C@@H](CC(C)C)C(=O)N[C@@H](C)C(=O)N1)C(=O)N1CCC[C@H]1C(=O)N[C@@H](Cc1ccccc1)C(=O)O` (stereo partly shown) [pEApeI3c, pERPmeLanRLAmeLanKGPMPF] ([pGlu]RP[ξAbu(3ξ-yl)]RLA[ξC]KGPMPF-OH; thioether 4-8; C-terminus assumed), the half-life at 0.1 mg/ml in data set [1] (rat, plasma, pH 7.4) was 2 h. For the same molecule, on hAPJ [2], the “Ratio β-arrestin/cAMP” value is reported as 167 and the EC50 worked out at 2.84 µM. Further, at hAPJ [3], the concentration for a half-maximal effect (EC50) stood at 0.017 µM.

For `CSCC[C@H](NC(=O)[C@@H]1CCCN1C(=O)CNC(=O)[C@H](CCCCN)NC(=O)C1CSC(C)C(NC(=O)[C@H](CCCNC(=N)N)NC(=O)[C@@H]2CCCN2C(=O)[C@H](CCCNC(=N)N)NC(=O)[C@@H]2CCC(=O)N2)C(=O)N[C@@H](CC(C)C)C(=O)N[C@@H](C)C(=O)N1)C(=O)N1CCC[C@H]1C(=O)N[C@@H](Cc1ccccc1)C(=O)O` (stereo partly shown) [pEApeI4a, pERPRmeLanLAmeLanKGPMPF] ([pGlu]RPR[ξAbu(3ξ-yl)]LA[ξC]KGPMPF-OH; thioether 5-8; C-terminus assumed), the half-life at 0.1 mg/ml in data set [1] (rat, plasma, pH 7.4) is 2 h. In addition, at hAPJ [2], the “Ratio β-arrestin/cAMP” value stood at 87 and the EC50 was 1.11 µM. The same molecule yielded an EC50 at hAPJ [3] of 0.0128 µM.

For the molecule `CSCC[C@H](NC(=O)[C@@H]1CCCN1C(=O)C1CSC(C)C(NC(=O)[C@H](CC(C)C)NC(=O)[C@H](CCCNC(=N)N)NC(=O)[C@@H]2CCCN2C(=O)[C@H](CCCNC(=N)N)NC(=O)[C@@H]2CCC(=O)N2)C(=O)N[C@@H](Cc2c[nH]cn2)C(=O)N[C@@H](CCCCN)C(=O)N1)C(=O)N1CCC[C@H]1C(=O)N[C@@H](Cc1ccccc1)C(=O)O` (stereo partly shown) [pEApeM5, pERPRLmelanHKmelanPMPF] ([pGlu]RPRL[ξAbu(3ξ-yl)]HK[ξC]PMPF-OH; thioether 6-9; C-terminus assumed), the EC50 at hAPJ [4] was determined as 1.25 nM; on hAPJ [6] it was 0.0141 µM; on hAPJ [2] it was 0.067 µM; in data set [7] it was 29.3 nM; on hAPJ [3], 0.007 µM. Moreover, on hAPJ [5], the IC50 stood at 0.115 µM. At hAPJ [6], the “activity in arrestin recruitment assay” value is given as “significant activity”. This molecule had a half-life at 0.1 mg/ml in data set [1] (rat, plasma, pH 7.4) of 9 h. Further, the “Ratio β-arrestin/cAMP” value on hAPJ [2] is on record as 9.

Turning to `CC=C(NC(=O)[C@H](CCSC)NC(=O)[C@@H]1CCCN1C(=O)C1CSC(C)C(NC(=O)[C@H](CC(C)C)NC(=O)[C@H](CCCNC(=N)N)NC(=O)[C@@H]2CCCN2C(=O)[C@H](CCCNC(=N)N)NC(=O)[C@@H]2CCC(=O)N2)C(=O)N[C@@H](Cc2c[nH]cn2)C(=O)N[C@@H](CCCCN)C(=O)N1)C(=O)N[C@@H](Cc1ccccc1)C(=O)O` (stereo partly shown) [pEApeM5T, pERPRLmeLanHKmeLanPMDhbF] ([pGlu]RPRL[ξAbu(3ξ-yl)]HK[ξC]PM[X1]F-OH; thioether 6-9; C-terminus assumed), the “stability in rat plasma” value in data set [1] (rat, plasma) is listed as “enhanced stability”. In data set [1] (rat, plasma, pH 7.4), the half-life at 0.1 mg/ml was 24 h. Moreover, the “Ratio β-arrestin/cAMP” value at hAPJ [2] was determined as 0.16. For the same molecule, the results for the EC50 on hAPJ [2] and at hAPJ [3] were 0.032 µM and 0.19 µM, respectively.

For `CSCC[C@H](NC(=O)[C@@H]1CCCN1C(=O)CNC(=O)C1CSC(C)C(NC(=O)[C@H](CC(C)C)NC(=O)[C@H](CCCNC(=N)N)NC(=O)[C@@H]2CCCN2C(=O)[C@H](CCCNC(=N)N)NC(=O)[C@@H]2CCC(=O)N2)C(=O)N[C@@H](Cc2c[nH]cn2)C(=O)N[C@@H](CCCCN)C(=O)N1)C(=O)N1CCC[C@H]1C(=O)O` (stereo partly shown) [pEApeM6deltaF, pERPRLmeLanHKmeLanGPMP] ([pGlu]RPRL[ξAbu(3ξ-yl)]HK[ξC]GPMP-OH; thioether 6-9; C-terminus assumed), the EC50 is more than 1000 nM on hAPJ [4], 0.385 µM on hAPJ [2] and 0.125 µM on hAPJ [3]. In addition, the “Ratio β-arrestin/cAMP” value at hAPJ [2] is 3.

Consider `CSCC[C@H](NC(=O)C1CSC(C)C(NC(=O)[C@H](CC(C)C)NC(=O)[C@H](CCCNC(=N)N)NC(=O)[C@@H]2CCCN2C(=O)[C@H](CCCNC(=N)N)NC(=O)[C@@H]2CCC(=O)N2)C(=O)N[C@@H](Cc2c[nH]cn2)C(=O)N[C@@H](CCCCN)C(=O)NCC(=O)N1)C(=O)N1CCC[C@H]1C(=O)N[C@@H](Cc1ccccc1)C(=O)O` (stereo partly shown) [pEApeM8, pERPRLmeLanHKGmeLanMPF] ([pGlu]RPRL[ξAbu(3ξ-yl)]HKG[ξC]MPF-OH; thioether 6-10; C-terminus assumed), for which the EC50 on hAPJ [4] is more than 1000 nM; at hAPJ [6], more than 0.3 µM; on hAPJ [2], more than 1 µM; in data set [7], more than 300 nM; on hAPJ [3] it was 0.125 µM. Also, the IC50 at hAPJ [5] is more than 1 µM. In addition, in data set [1] (rat, plasma, pH 7.4), the half-life at 0.1 mg/ml was 24 h. Also, the “Ratio β-arrestin/cAMP” value on hAPJ [2] was more than 8.

`CSCC[C@@H]1NC(=O)[C@@H]2CCCN2C(=O)CNC(=O)C(NC(=O)[C@H](Cc2c[nH]cn2)NC(=O)[C@H](C)NC(=O)[C@H](CC(C)C)NC(=O)[C@H](CCCNC(=N)N)NC(=O)[C@@H]2CCCN2C(=O)[C@H](CCCNC(=N)N)NC(=O)[C@@H]2CCC(=O)N2)CSCC(C(=O)N[C@@H](Cc2ccccc2)C(=O)O)NC1=O` (stereo partly shown) [pEApeT8cS] gave a half-life at 0.1 mg/ml in data set [1] (rat, plasma, pH 7.4) of 8 h. In addition, on hAPJ [2], the “Ratio β-arrestin/cAMP” value is given as 122 and the EC50 came out at 0.245 µM. The molecule also came in with an EC50 on hAPJ [3] of 0.002 µM.

Turning to `CSCC[C@H](NC(=O)[C@@H]1CCCN1C(=O)CNC(=O)[C@H](CCCCN)NC(=O)[C@H](Cc1c[nH]cn1)NC(=O)[C@H](CO)NC(=O)[C@H](CC(C)C)NC(=O)[C@H](CCCNC(=N)N)NC(=O)[C@@H]1CCCN1C(=O)[C@H](CCCNC(=N)N)NC(=O)[C@@H](N)CCC(N)=O)C(=O)N1CCC[C@H]1C(=O)N[C@@H](Cc1ccccc1)C(=O)O` [reference compound], in data set [8], the “blocking of HIV entry into cells” value is given as “poorly blocks”. Moreover, in data set [1] (10% rat plasma, pH 7.4, 37° C., 0.1 mg/ml, read-out: T50 stability in rat plasma (converted)), the half-life at 0.1 mg/ml is 1 h.

Regarding QRPRLAHKGPMPF [reference compound], on hAPJ [2], the “Ratio β-arrestin/cAMP” value came to 20 and the EC50 worked out at 0.012 µM. The molecule also registered an EC50 on hAPJ [3] of 0.0006 µM.
